Assays:
[1] = Total EGCG concentration in blood and brain tissues after 4 weeks of treatment; assay type: in vivo; settings: after 4 weeks of treatment at a maximum dose (300 mg/kg)
SweAPP N2a cells = settings: free EGCG (Rezai-Zadeh et al., 2005); cited from earlier work
[2] = oral dose of 800 mg/70 kg/day; cited from earlier work
Water solubility of EGCG = assay type: physicochemical

Question: For `O=C(O[C@@H]1Cc2c(O)cc(O)cc2O[C@@H]1c1cc(O)c(O)c(O)c1)c1cc(O)c(O)c(O)c1` [EGCG, (−)-epigallocatechin-3-gallate], which “total EGCG concentration in blood and brain tissues” value [1] is on record?
Answer: 1000 to 1300 ng/mL

Question: And the “EGCG concentration necessary for promoting APP α-secretase cleavage” value (SweAPP N2a cells)?
Answer: 1000 to 2000 ng/mL

Question: What about the “EGCG in human plasma” value [2] of the same compound?
Answer: approximately 400 ng/ml

Question: And the water solubility (Water solubility of EGCG)?
Answer: poorly water soluble

Reference: US8906414B1, “Methods and compositions for improving bioavailability of epigallocatechin gallate (EGCG)” (University of South Florida, priority 2009, dated 2014)
